Experimental data taken from patent publication US12161689B2, “Anti-infective formulations” (NEW MEXICO TECH UNIVERSITY RESEARCH PARK CORPORATION, priority 2018, dated 2024).
Where a SMILES comes first, the peptide text is derived from it. Bridges are numbered along the chain shown (N, C = ends). [ ]: non-standard residue; d: D form. The star is where a group is joined. Ileψ(thiazoline)Cys = CC[C@H](C)[C@H](N)C1=N[C@H](C(=O)*)CS1; dOrn = NCCC[C@@H](N)C(=O)O

Assays:
[1] = test system: multi-drug resistant E. coli (AR 0348); assay: Spot on lawn, MHA plate: killing; type: cell-based; settings: 10 μL; 1 day at 37° C.
Method: An overnight growth of multi-drug resistant E. coli (AR 0348) was made in MHB. The samples were diluted 1:1000, and spread onto a MHA plate.

[2] = test system: multi-drug resistant E. coli (AR 0346); assay: Spot on lawn, MHA plate: killing; type: cell-based; settings: 10 μL; 3 days at 37° C.
Method: An overnight growth of multi-drug resistant E. coli (AR 0346) was made in MHB. The samples were diluted 1:1000, and spread onto a MHA plate.

[3] = test system: multi-drug resistant Burkholderia cepacia (ATCC 10856); assay: Spot on lawn, MHA plate: killing / diameter of clearance; type: cell-based; settings: for killing of multi-drug resistant Burkholderia cepacia: 10 μL, overnight at 37° C. (FIG. 63); for antibacterial activity: 10 μL spot, 24 to 48 hours at 37° C.
[4] = test system: Escherichia coli (O157:H7) (ATCC 51657); assay: as above; type: cell-based; set-up: key to antibacterial activity: “+” indicates antibacterial activity with complete clearing; “−” indicates no antibacterial activity; settings: for antibacterial activity: 24 to 48 hours at 37° C.
[5] = test system: Bacillus subtilis (ATCC 6633); assay: as above; type: cell-based; settings: 10 μL spot; incubation period of 1 day
[6] = test system: multi-drug resistant Pseudomonas aeruginosa (ATCC 2114); assay: as above; type: cell-based; settings: 10 μL spot; for antibacterial activity: 24 to 48 hours at 37° C.
[7] = test system: multi-drug resistant Acinetobacter baumannii (ATCC 1797); assay: as above; type: cell-based; settings: 10 μL spot; for antibacterial activity: 24 to 48 hours at 37° C.
[8] = test system: multi-drug-resistant E. coli CDC AR0493; assay: Spot on lawn, MHA plate: killing; type: cell-based; settings: 10 μL spot, 24 to 48 hours at 37° C.
[9] = test system: CRE NDM-1 MDR (ATCC BAA 2146); assay: Spot on lawn, MHA plate: killing / diameter of clearance; type: cell-based, Enterobacteriaceae; set-up: key to antibacterial activity: “+” indicates antibacterial activity with complete clearing; “−” indicates no antibacterial activity; settings: for antibacterial activity: 24 to 48 hours at 37° C.
[10] = test system: Yesenia pestis (Kimo 6); type: cell-based, Yersinia pestis; settings: 10 μL spot; for efficacy against Yesenia pestis (Kimo 6), comparison with antibiotics: incubation period of 1 day; for antibacterial activity: Yersinia pestis KIM6, 24 to 48 hours at 37° C.
[11] = test system: MRSA BAA-1717 (USA 300); assay: Spot on lawn, MHA plate: killing / diameter of clearance; settings: 10 μL; overnight at 37° C. (FIG. 63)
[12] = test system: Salmonella enteriditis CDC AR0496; assay: Spot on lawn, MHA plate: killing; type: cell-based; settings: 10 μL spot, 24 to 48 hours at 37° C.
[13] = test system: MCR-1 E. coli (AR 0350); assay: Spot on lawn, MHA plate: killing; type: cell-based; settings: 10 μL drops; 1 day at 37° C.
Source text: An overnight growth of MCR-1 E. coli (AR 0350) was made in MHB, and was spread undiluted onto a MHA plate.

[14] = test system: Mycobacterium abscessus (ATCC 19977); assay: Spot on lawn, MHA plate: killing / diameter of clearance; type: cell-based; set-up: key: “+” indicates antibacterial activity with complete clearing; “−” indicates no antibacterial activity; settings: 10 μL spot, 24 to 48 hours at 37° C.
[15] = test system: Streptococcus pyogenes; assay: as above; type: cell-based; set-up: key to antibacterial activity: “+” indicates antibacterial activity with complete clearing; “−” indicates no antibacterial activity; settings: for killing of Streptococcus pyogenes / antibacterial activity: 10 μL spot; for killing of Streptococcus pyogenes: incubation period of 1 day; for antibacterial activity: 24 to 48 hours at 37° C.; for killing of S. pyogenes: after 7 days of incubation
[16] = test system: Vancomycin-resistant enterococcus (VRE) (ATCC 51299); assay: as above; type: cell-based; set-up: key to antibacterial activity: “+” indicates antibacterial activity with complete clearing; “−” indicates no antibacterial activity; settings: 10 μL spot; for antibacterial activity: 24 to 48 hours at 37° C.
[17] = test system: MRSA (ATCC BAA44); assay: as above; type: cell-based, Staphylococcus aureus; settings: for antibacterial activity: 24 to 48 hours at 37° C.
[18] = test system: Stenotrophomonas maltophilia (ATCC 13637); assay: as above; type: cell-based; set-up: key: “+” indicates antibacterial activity with complete clearing; “−” indicates no antibacterial activity; settings: S. maltophilia (ATCC 13637); 10 μL spot; 24 to 48 hours at 37° C.
[19] = test system: Shigella flexneri 85W 2332; assay: Spot on lawn, MHA plate: killing; type: cell-based; settings: 10 μL spot, 24 to 48 hours at 37° C.
[20] = test system: red blood cells; assay: Hemolysis on blood agar plate; settings: 5 μL spotted; refrigerated overnight
[21] = Burkholderia cepacia ATCC 10856
[22] = 10 μL spot, incubation period of 1 day
[23] = E. Coli (O157:H7) (ATCC 51657), 10 μL spot
[24] = CRE NDM-1 (MDR) ATCC BAA-2146, 10 μL spot
[25] = CRE NDM-1 MDR (ATCC BAA 2146), 10 μL spot
[26] = Mycobacterium abscessus ATCC19977
[27] = Streptococcus pyogenes 85W 1180

Compound: C/C(=C\C(=O)OCCCCCCCCC(=O)O)C[C@@H]1OC[C@H](C[C@@H]2O[C@H]2[C@@H](C)[C@H](C)O)[C@@H](O)[C@H]1O [Mupirocin]
- killing of multi-drug resistant E. coli (AR 0348) [1]: fully killed
- killing of multi-drug resistant E. coli (AR 0346) [2]: fully killed
- killing of multi-drug resistant Burkholderia cepacia [3]: killed
- antibacterial activity ([3]; B. cepacia (ATCC 10856)): +
- antibacterial activity [3, 21]: +
- killing of Escherichia coli (O157:H7) [4, 22]: killed
- antibacterial activity [4, 23]: +
- antibacterial activity ([4]; E. coli O157:H7, 10 μL spot): +
- killing of Escherichia coli (O157:H7) ([4]; after 5 days of incubation): only formulations that killed
- regrowth of Escherichia coli (O157:H7) ([4]; after 5 days of incubation): not observed
- killing of Bacillus subtilis [5]: killed
- killing of multi-drug resistant Pseudomonas aeruginosa ([6]; incubation period of 1 day (FIG. 55)): killed
- antibacterial activity ([6]; P. aeruginosa MDR (ATCC 2114)): +
- antibacterial activity ([6]; P. aeruginosa MDR ATCC 2114): +
- killing of A. baumannii ([7]; incubation period of 1 day (FIG. 54)): killed
- antibacterial activity ([7]; A. Baumannii MDR (ATCC 1797)): −
- antibacterial activity ([7]; A. baumannii MDR ATCC 1797): −
- antibacterial activity [8]: +
- killing of CRE NDM-1 MDR [9, 22]: killed
- antibacterial activity [9, 24]: −
- antibacterial activity [9, 25]: −
- killing of CRE NDM-1 MDR ([9]; after 5 days of incubation): only formulations that killed
- regrowth of CRE NDM-1 MDR ([9]; after 5 days of incubation): not observed
- efficacy against Yesenia pestis (Kimo 6), comparison with antibiotics [10]: more effective than MM8
- antibacterial activity [10]: +
- killing of MRSA BAA-1717 (USA 300) [11]: killed
- antibacterial activity [12]: +
- killing of MCR-1 E. coli (AR 0350; colisitin-resistance only) [13]: fully killed
- antibacterial activity ([14]; M. abscessus (ATCC 19977)): −
- antibacterial activity [14, 26]: −
- killing of Streptococcus pyogenes [15]: killed
- antibacterial activity ([15]; S. pyogenes): +
- antibacterial activity [15, 27]: +
- killing of S. pyogenes [15]: further killed
- antibacterial activity ([16]; VRE (ATCC 51299)): −
- antibacterial activity ([16]; VRE): −
- killing of MRSA ([17]; 10 μL spot, incubation period of 1 day (FIG. 52)): killed
- antibacterial activity ([17]; MRSA (ATCC BAA44), 10 μL spot): +
- antibacterial activity ([17]; MRSA ATCC BAA-44, 10 μL spot): +
- killing of MRSA ([17]; after 4 days of incubation): only formulations that killed
- regrowth of MRSA ([17]; after 4 days of incubation): not observed
- antibacterial activity [18]: −
- antibacterial activity [19]: +

Compound: O=C(O)c1ccccc1O [2% salicylic acid, salicylic acid]
- blood hemolysis [20]: little to no hemolysis

Compound: Neomycin
- killing of multi-drug resistant Burkholderia cepacia [3]: killed
- antibacterial activity ([3]; B. cepacia (ATCC 10856)): −
- antibacterial activity [3, 21]: −
- killing of Escherichia coli (O157:H7) [4, 22]: killed
- antibacterial activity [4, 23]: +
- antibacterial activity ([4]; E. coli O157:H7, 10 μL spot): +
- killing of Escherichia coli (O157:H7) ([4]; after 5 days of incubation): only formulations that killed
- regrowth of Escherichia coli (O157:H7) ([4]; after 5 days of incubation): not observed
- killing of Bacillus subtilis [5]: killed
- antibacterial activity ([6]; P. aeruginosa MDR (ATCC 2114)): −
- antibacterial activity ([6]; P. aeruginosa MDR ATCC 2114): −
- antibacterial activity ([7]; A. Baumannii MDR (ATCC 1797)): −
- antibacterial activity ([7]; A. baumannii MDR ATCC 1797): −
- antibacterial activity [8]: −
- antibacterial activity [9, 24]: −
- antibacterial activity [9, 25]: −
- efficacy against Yesenia pestis (Kimo 6), comparison with antibiotics [10]: more effective than MM8
- antibacterial activity [10]: −
- antibacterial activity ([14]; M. abscessus (ATCC 19977)): −
- antibacterial activity [14, 26]: −
- killing of Streptococcus pyogenes [15]: killed
- regrowth of Streptococcus pyogenes colonies in treated area ([15]; FIG. 59, 7 days): colonies invaded
- antibacterial activity ([15]; S. pyogenes): +
- antibacterial activity [15, 27]: +
- killing of S. pyogenes [15]: further killed
- antibacterial activity ([16]; VRE (ATCC 51299)): −
- antibacterial activity ([16]; VRE): −
- antibacterial activity ([17]; MRSA (ATCC BAA44), 10 μL spot): −
- antibacterial activity ([17]; MRSA ATCC BAA-44, 10 μL spot): −
- antibacterial activity [18]: +

Compound: CC[C@H](C)[C@H](N)C1=N[C@H](C(=O)N[C@@H](CC(C)C)C(=O)N[C@H](CCC(=O)O)C(=O)N[C@H](C(=O)N[C@H]2CCCCNC(=O)[C@H](CC(N)=O)NC(=O)[C@@H](CC(=O)O)NC(=O)[C@H](Cc3cnc[nH]3)NC(=O)[C@@H](Cc3ccccc3)NC(=O)[C@H]([C@@H](C)CC)NC(=O)[C@@H](CCCN)NC2=O)[C@@H](C)CC)CS1 [Bacitracin] ({Ileψ(thiazoline)Cys}-L[dE]IK[dOrn]I[dF]H[dD]N; lactam 4-C)
- antibacterial activity [4, 23]: −
- antibacterial activity ([4]; E. coli O157:H7, 10 μL spot): −
- antibacterial activity ([6]; P. aeruginosa MDR (ATCC 2114)): −
- antibacterial activity ([6]; P. aeruginosa MDR ATCC 2114): −
- antibacterial activity ([7]; A. Baumannii MDR (ATCC 1797)): −
- antibacterial activity ([7]; A. baumannii MDR ATCC 1797): −
- antibacterial activity [8]: −
- antibacterial activity [9, 24]: −
- antibacterial activity [9, 25]: −
- antibacterial activity [10]: −
- antibacterial activity ([14]; M. abscessus (ATCC 19977)): −
- antibacterial activity [14, 26]: −
- antibacterial activity ([15]; S. pyogenes): −
- antibacterial activity [15, 27]: −
- killing of VRE ([16]; incubation period of 1 day): killed
- antibacterial activity ([16]; VRE (ATCC 51299)): −
- antibacterial activity ([16]; VRE): −
- antibacterial activity ([17]; MRSA (ATCC BAA44), 10 μL spot): −
- antibacterial activity ([17]; MRSA ATCC BAA-44, 10 μL spot): −
- antibacterial activity [18]: −

Compound: O=C(OOC(=O)c1ccccc1)c1ccccc1 [benzoyl peroxide]
- blood hemolysis [20]: complete hemolysis
